# Key:
# [1] = tested on: Myzus persicae; assay: Myzus persicae test (cabbage leaf dip); assay type: in vivo; conditions: for Kill in % after 1 day: Table A1; for Kill in % after 6 days: Table A2
# [2] = tested on: Phaedon cochleariae larvae; assay: Phaedon cochleariae larvae test (cabbage leaf dip)
compound,measurement,setting,value
CN/C(=N\[N+](=O)[O-])NCc1cnc(Cl)s1 [clothianidin],Kill in % after 1 day,[1]; 0.8 ppm,40%
same,Kill in % after 6 days,[1]; 0.8 ppm,30%
same,Kill in % after 6^d,"[2]; 4 ppm, Table B1",20%
same,Kill in % after 6^d,"[2]; 4 ppm, Table B2",60%
CNC(=O)/C(=N/OC)c1ccccc1COc1cc(C)ccc1C [dimoxystrobin],Kill in % after 6^d,"[2]; 20 ppm, Table B2",0%
CO/C=C(/C(=O)OC)c1ccccc1COc1cccc(C(F)(F)F)n1 [picoxystrobin],Kill in % after 1 day,[1]; 100 ppm,0%
same,Kill in % after 6^d,"[2]; 100 ppm, Table B1",0%
pyraclostrobin,Kill in % after 6 days,[1]; 100 ppm,35%

# Source: patent publication US20080274882A1, “Insecticides Based on Selected Neonicotinoids and Strobilurins” (Bayer CropScience AG, priority 2004, published 2008)
